Data taken from patent publication US7625905B2, “Octahydro-pyrrolo[3,4-c]pyrrole CCR5 receptor antagonists” (Roche Palo Alto LLC, priority 2006, dated 2009).

Legend:
CCR5 [1] = biological target: T1, CCR5 (Homo sapiens, UniProt P51681); assay: Human CCR5 receptor-ligand binding (RANTES) assay; design: expressed in transfected cells; conditions: 125I RANTES 0.1 nM, CHO-Gα16-hCCR5 cells
Method: The construct was transfected into CHO-Gα16 cells by using Fugene Reagent (Roche).
Adherent cells in […] tissue culture flask (˜90% confluent) were harvested using 1 mM EDTA in PBS (phosphate-buffered saline) without Ca^2+ and Mg^2+. Cells were washed twice with PBS containing no Ca^2+ and Mg^2+.
Eighty μl CHO-Gα16-hCCR5 (1×10^6/ml) cells were added to 96 well plates.
The compound dilutions were made in PBS, 1% BSA. Total reaction volume was 100 μl per well. The test compounds were added to the cells prior to the addition of radioligand.
After incubation, the cells were harvested onto GF/C filter plates using Packard cell harvester. Filters were pretreated with 0.3% PEI/0.2% BSA for 30 min. The filter plate was washed rapidly 5 times with 25 mM HEPES, 500 mM NaCl, 1 mM CaCl2 and 5 mM MgCl2 adjusted to pH 7.1. Plates were dried in oven (70° C.) for 20 min, added with 40 μl scintillation fluid and sealed with Packard TopSeal-A. Packard Top Count was used to measure of the radioactivity for 1 min per well.
Total binding was determined with control wells added with radioisotope and buffer and the non-specific binding was determined using an excess cold RANTES to some of the control wells. Specific binding was determined by subtracting the non-specific form total binding. […] IC50 values were determined using varying concentrations of the test ligand in triplicates and the data was analyzed using GraphPad Prism (GraphPad, San Diego, Calif.).

CCR5 [2] = biological target: T1, CCR5; assay: CCR5-mediated CCF (cell-cell fusion) assay, Hela-R5 / CEM-NKr-CCR5-Luc luciferase readout; assay type: cell-based; design: host or cells: CEM-NKr-CCR5-Luc cells, co-cultured with Hela-R5 cells expressing gp160 and Tat; conditions: Hela-R5 and CEM-NKr-CCR5-Luc co-culture 24 hrs
Method: The capacity for novel compounds of the present invention to bind to the CCR5 receptor and thereby antagonize CCR5 function can be evaluated with assay systems known in the art.
Hela-R5 cells (express gp160 from R5-tropic virus and HIV-1 Tat) were plated in 384 well white culture plates (BD Bioscience, Palo Alto, Calif.) at 7.5×10^3 cells per well in phenol red-free Dulbecco's Modified Eagle Medium (DMEM) supplemented with 10% FBS, 1× Pen-Strep, 300 μg/ml G418, 100 μg/ml hygromycin, and 1 μg/ml Doxycycline (Dox) (BD Bioscience, Palo Alto, Calif.), using Multimek (Beckman, Fullerton, Calif.) and incubated at 37° C. overnight to induce the expression of gp160. Ten μl diluted compounds in medium containing 5% DMSO were added to the cells, followed by the addition of CEM-NKr-CCR5-Luc (obtained from NIH AIDS Research & Reference Reagents Program) that expresses CD4 and CCR5 and carries a HIV-2 long terminal repeat (LTR)-driven luciferase reporter gene at 1.5×10^4 cells/15 μL/well and incubated for 24 hrs. At the end of co-culture, 15 μl of Steady-Glo luciferase substrate was added into each well, and the cultures were sealed and gently shaken for 45 min. The luciferase activity were measured for 10 sec per well as luminescence by using 16-channel TopCount NXT (PerkinElmer, Shelton, Conn.) with 10 min dark adaptation and the readout is count per second (CPS). For the drug interaction experiments, small molecule compounds or antibodies were serially diluted in serum-free and phenol red-free RPMI containing 5% dimethyl sulfoxide (DMSO) (CalBiochem, La Jolla, Calif.) and 1× Pen-Strep. Five μl each of the two diluted compound or mAb to be tested for drug-drug interactions were added to the Hela-R5 cells right before the addition of target cells.

CCR5 [3] = biological target: T1, CCR5; assay: Chemotaxis assay with L1.2hCCR5 cells; assay type: cell-based; design: expressed in transfected cells; conditions: Inhibition of RANTES stimulated chemotaxis
From the text: A chemotaxis assay is a functional assay which measures the ability of a non-adherent cell line expressing human CCR5 receptor to migrate across a membrane in response to either test compounds or natural attractant ligand(s) (i.e., RANTES, MIP-1β). Generally, chemotaxis assays monitor the directional movement or migration of a suitable cell (such as a leukocyte (e.g., lymphocyte, eosinophil, basophil)) into or through a barrier (e.g., endothelium, a permeable filter membrane), toward, from a first surface of the barrier toward an opposite second surface containing attractant ligands. Membranes or filters provide convenient barriers to monitor the directional movement or migration of a suitable cell into or through a filter, toward increased levels of an attractant. […]
After the incubation period, the cells are scraped off the filter and the plates are spun in a table top centrifuge at 2,000 rpm for 10 min. The filter is then removed and the density of the cells that have migrated to the bottom wells is detected using CyQUANT^R cell proliferation assay kit (Invitrogen) and the Spectra MAX GeminiXS plate reader (Molecular Devices) according to the manufacturers' instructions. Using the fluorescence measurements the percent migration is determined by % migration=[1−(max−obs)/(max−min)]×100. […] This is calculated with Excel Fit.

[4] = test system: collagen induced arthritis; conditions: collagen-induced arthritis model; cited from earlier work

T1 sequence (P51681 whole entry): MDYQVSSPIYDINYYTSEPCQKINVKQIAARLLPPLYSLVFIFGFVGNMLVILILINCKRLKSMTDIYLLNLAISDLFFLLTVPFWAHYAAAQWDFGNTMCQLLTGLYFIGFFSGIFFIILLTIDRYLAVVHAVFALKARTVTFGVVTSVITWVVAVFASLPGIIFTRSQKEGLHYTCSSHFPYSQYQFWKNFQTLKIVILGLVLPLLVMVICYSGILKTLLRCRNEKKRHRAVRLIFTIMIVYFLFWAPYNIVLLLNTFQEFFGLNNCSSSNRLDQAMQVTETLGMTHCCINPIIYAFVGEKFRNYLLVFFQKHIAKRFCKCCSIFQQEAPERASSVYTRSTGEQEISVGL

Row | Compound | IC50 (CCR5 [1]) [nM] | IC50 (CCR5 [2]) [nM] | IC50 (CCR5 [3]) [nM] | incidence and severity of arthritis [4] | infiltration of inflammatory CCR5+ T-cells into the joint [4]
1 | 1-(4-{3-[5-(4,6-Dimethyl-pyrimidine-5-carbonyl)-hexahydro-pyrrolo[3,4-c]pyrrol-2-yl]-1-phenyl-propyl}-piperidin-1-yl)-2-methyl-propan-1-one [V-15] | 8.2 | 202 | – | – | –
2 | COC(=O)N1CCC(C(CCN2CC3CN(C(=O)c4c(C)ncnc4C)CC3C2)c2ccccc2)CC1 (stereo not shown) [V-7, 4-{3-[5-(4,6-Dimethyl-pyrimidine-5-carbonyl)-hexahydro-pyrrolo[3,4-c]pyrrol-2-yl]-1-phenyl-propyl}-piperidine-1-carboxylic acid methyl ester] | 102 | 744 | – | – | –
3 | Cc1ncnc(C)c1C(=O)N1CC2CN(CCC3(c4ccccc4)CCN(C(=O)c4cccc(S(=O)(=O)N(C)C)c4)CC3)CC2C1 (stereo not shown) [I-14] | 48.4 | 1200 | – | – | –
4 | Cc1ncnc(C)c1C(=O)N1CC2CN(CCC3(c4cccc(F)c4)CCN(C(=O)c4ccccc4)CC3)CC2C1 (stereo not shown) [I-3] | 77.6 | 306 | – | – | –
5 | Cc1ncnc(C)c1C(=O)N1CC2CN(CCC3(c4ccccc4)CCN(C(=O)OC(C)(C)C)CC3)CC2C1 (stereo not shown) [I-1, tert-Butyl 4-{2-[5-(4,6-dimethyl-pyrimidine-5-carbonyl)-hexahydro-pyrrolo[3,4-c]pyrrol-2-yl]-ethyl}-4-phenyl-piperidine-1-carboxylate] | 835 | 835 | – | – | –
6 | Cc1ncnc(C)c1C(=O)N1CC2CN(CCC3(c4cccc(F)c4)CCN(C(=O)c4cccc(S(=O)(=O)N(C)C)c4)CC3)CC2C1 (stereo not shown) [I-19] | 50.9 | 393 | – | – | –
7 | Cc1ncnc(C)c1C(=O)N1CC2CN(CCC3(c4ccccc4)CCN(C(=O)c4ccc(S(N)(=O)=O)cc4)CC3)CC2C1 (stereo not shown) [I-9] | 500 | 2500 | – | – | –
8 | Cc1ncnc(C)c1C(=O)N1CC2CN(CCC(c3ccccc3)C3CCN(S(C)(=O)=O)CC3)CC2C1 (stereo not shown) [V-12] | – | – | 765 | – | –
9 | Cc1ccc(-c2ccc3c(c2)C=C(C(=O)Nc2ccc(C[N+](C)(C)C4CCOCC4)cc2)CCC3)cc1.[Cl-] [TAK-779] | – | – | – | reduce both the incidence and severity of arthritis | inhibited

Continued, in another order:

Row | IC50 (CCR5 [1]) [nM] | IC50 (CCR5 [2]) [nM] | IC50 (CCR5 [3]) [nM] | Compound | incidence and severity of arthritis [4] | infiltration of inflammatory CCR5+ T-cells into the joint [4]
10 | 68.8 | 360 | – | Cc1cc(C#N)nc(C)c1C(=O)N1CC2CN(CCC3(c4ccccc4)CCN(C(=O)C(C)(C)C)C3)CC2C1 (stereo not shown) [III-8] | – | –
11 | 27.7 | 136 | – | Cc1ncnc(C)c1C(=O)N1CC2CN(CCC3(c4ccccc4)CN(C(=O)CC4CCCC4)C3)CC2C1 (stereo not shown) [II-6] | – | –
12 | 18.8 | 9.5 | – | Cc1ncnc(C)c1C(=O)N1CC2CN(CCC3(c4ccccc4)CN(C(=O)C4CCC(F)(F)CC4)C3)CC2C1 (stereo not shown) [II-39] | – | –
13 | 244 | 458 | – | Cc1ncnc(C)c1C(=O)N1CC2CN(CCC(c3ccccc3)C3CN(C(=O)C(C)C)C3)CC2C1 (stereo not shown) [IV-10] | – | –
14 | 11.3 | 2.6 | – | Cc1cc(=O)oc(C)c1C(=O)N1CC2CN(CCC3(c4ccccc4)CN(C(=O)C4CCC(F)(F)CC4)C3)CC2C1 (stereo not shown) [II-33] | – | –
15 | 27.1 | 458 | – | Cc1ncnc(C)c1C(=O)N1CC2CN(CCC3(c4ccccc4)CN(S(=O)(=O)C4CCCC4)C3)CC2C1 (stereo not shown) [II-22, {5-[2-(1-Cyclopentanesulfonyl-3-phenyl-azetidin-3-yl)-ethyl]-hexahydro-pyrrolo[3,4-c]pyrrol-2-yl}-(4,6-dimethyl-pyrimidin-5-yl)-methanone] | – | –
16 | 38.6 | 4.2 | – | Cc1ncnc(C)c1C(=O)N1CC2CN(CCC(c3cccc(F)c3)C3CN(S(=O)(=O)c4cccc(F)c4)C3)CC2C1 (stereo not shown) [IV-14] | – | –
17 | 105 | – | – | Cc1ncnc(C)c1C(=O)N1CC2CN(CCC3(c4ccccc4)CN(S(=O)(=O)C(C)C)C3)CC2C1 (stereo not shown) [II-19] | – | –
18 | 51.5 | 486 | – | Cc1ncnc(C)c1C(=O)N1CC2CN(CCC3(c4ccccc4)CN(C(=O)C4(C(F)(F)F)CC4)C3)CC2C1 (stereo not shown) [II-15] | – | –
